Measurements as given in patent publication US10695337B2, “Piperidin-4-yl azetidine derivatives as JAK1 inhibitors” (Incyte Corporation, priority 2010, dated 2020).
pIC50: −log10 of the molar value.

Legend:
Assay type in all cases: biochemical
[1] = target: human Jak2 (a.a. 828-1132) (Homo sapiens (Human), UniProt O60674); assay: In vitro JAK kinase assay (HTRF, phosphorylation of a biotinylated peptide), JAK2; settings: measured at 1 mM ATP
Description: Compounds herein were tested for inhibitory activity of JAK targets according to the following in vitro assay described in Park et al., Analytical Biochemistry 1999, 269, 94-104. The catalytic domains of human JAK1 (a.a. 837-1142), Jak2 (a.a. 828-1132) and Jak3 (a.a. 781-1124) with an N-terminal His tag were expressed using baculovirus in insect cells and purified. The catalytic activity of JAK1, JAK2 or JAK3 was assayed by measuring the phosphorylation of a biotinylated peptide. The phosphorylated peptide was detected by homogenous time resolved fluorescence (HTRF). […] Reactions were carried out at room temperature for 1 hr and then stopped with 20 μL 45 mM EDTA, 300 nM SA-APC, 6 nM Eu-Py20 in assay buffer (Perkin Elmer, Boston, Mass.). Binding to the Europium labeled antibody took place for 40 minutes and HTRF signal was measured on a Fusion plate reader (Perkin Elmer, Boston, Mass.).

[2] = target: human JAK1 (a.a. 837-1142); assay: In vitro JAK kinase assay (HTRF, phosphorylation of a biotinylated peptide), JAK1; settings: measured at 1 mM ATP; JAK2 IC50 / JAK1 IC50
Method in brief: (§1)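 Phosphorylation of a biotinylated peptide by purified His-tagged JAK catalytic domains (insect-cell baculovirus expression) ran 1 hr at room temperature. After stopping with EDTA, Eu-Py20 and SA-APC were bound for 40 minutes and HTRF measured.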

[3] = target: human JAK1 (a.a. 837-1142) (Homo sapiens, UniProt P23458); assay: as above; settings: measured at 1 mM ATP
Method in brief: as §1

Chain of human Jak2 (a.a. 828-1132) (O60674 828-1132): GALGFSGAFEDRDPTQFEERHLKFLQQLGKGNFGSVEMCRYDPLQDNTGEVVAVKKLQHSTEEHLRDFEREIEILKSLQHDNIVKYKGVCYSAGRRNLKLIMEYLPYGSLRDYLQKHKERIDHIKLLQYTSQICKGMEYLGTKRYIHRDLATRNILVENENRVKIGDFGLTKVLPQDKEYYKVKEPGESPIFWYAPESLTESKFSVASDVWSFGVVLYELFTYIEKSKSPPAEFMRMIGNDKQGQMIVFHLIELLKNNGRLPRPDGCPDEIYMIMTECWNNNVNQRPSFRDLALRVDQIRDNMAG

Row | Compound | pIC50 [1] | IC50 Ratio JAK2/JAK1 [2] | pIC50 [3]
1 | CC1CC(N2CC(CC#N)(n3cc(-c4ncnc5[nH]ccc45)cn3)C2)CCN1C(=O)c1cccc(F)c1 (single isomer, unassigned) [Example 149, {1-[1-(3-fluorobenzoyl)-2-methylpiperidin-4-yl]-3-[4-(7H-pyrrolo[2,3-d]pyrimidin-4-yl)-1H-pyrazol-1-yl]azetidin-3-yl}acetonitrile] | 7.30 to 8.00 | 5.0 | –
2 | CC1CC(N2CC(CC#N)(n3cc(-c4ncnc5[nH]ccc45)cn3)C2)CCN1C(=O)c1cccc(F)c1 (single isomer, unassigned) [Example 150, {1-[1-(3-fluorobenzoyl)-2-methylpiperidin-4-yl]-3-[4-(7H-pyrrolo[2,3-d]pyrimidin-4-yl)-1H-pyrazol-1-yl]azetidin-3-yl}acetonitrile] | ≥ 8.00 | 7.0 | –
3 | CC1CC(N2CC(CC#N)(n3cc(-c4ncnc5[nH]ccc45)cn3)C2)CCN1Cc1ccc(N(C)C)c(C#N)c1F (single isomer, unassigned) [Example 242, 3-[(4-{3-(cyanomethyl)-3-[4-(7H-pyrrolo[2,3-d]pyrimidin-4-yl)-1H-pyrazol-1-yl]azetidin-1-yl}-2-methylpiperidin-1-yl)methyl]-6-(dimethylamino)-2-fluorobenzonitrile] | 7.30 to 8.00 | 8.3 | ≥ 8.30
4 | CC1CC(N2CC(CC#N)(n3cc(-c4ncnc5[nH]ccc45)cn3)C2)CCN1Cc1ccc(N(C)C)c(C#N)c1F (single isomer, unassigned) [Example 243, 3-[(4-{3-(cyanomethyl)-3-[4-(7H-pyrrolo[2,3-d]pyrimidin-4-yl)-1H-pyrazol-1-yl]azetidin-1-yl}-2-methylpiperidin-1-yl)methyl]-6-(dimethylamino)-2-fluorobenzonitrile] | < 7.00 | 6.4 | 7.52 to 7.70
5 | N#CCC1(n2cc(-c3ncnc4[nH]ccc34)cn2)CN(C2CCN(C(=O)c3ccc(-c4cccc5cccnc45)c(F)c3)CC2)C1 [Example 132, {1-[1-(3-fluoro-4-quinolin-8-ylbenzoyl)piperidin-4-yl]-3-[4-(7H-pyrrolo[2,3-d]pyrimidin-4-yl)-1H-pyrazol-1-yl]azetidin-3-yl} acetonitrile] | – | 5.8 | ≥ 8.30
6 | N#CCC1(n2cc(-c3ncnc4[nH]ccc34)cn2)CN(C2CCN(C(=O)c3cc(CO)nc(C(F)(F)F)n3)CC2)C1 [Example 381, {1-(1-{[6-(hydroxymethyl)-2-(trifluoromethyl)pyrimidin-4-yl]carbonyl}piperidin-4-yl)-3-[4-(7H-pyrrolo[2,3-d]pyrimidin-4-yl)-1H-pyrazol-1-yl]azetidin-3-yl}acetonitrile] | – | 20 | –
7 | CCCOC(=O)N1CCC(N2CC(CC#N)(n3cc(-c4ncnc5[nH]ccc45)cn3)C2)CC1 [Example 386, Propyl 4-{3-(cyanomethyl)-3-[4-(7H-pyrrolo[2,3-d]pyrimidin-4-yl)-1H-pyrazol-1-yl]azetidin-1-yl}piperidine-1-carboxylate] | – | 7.7 | –
8 | N#CCC1(n2cc(-c3ncnc4[nH]ccc34)cn2)CN(C2CCN(C(=O)OCC3CCC3)CC2)C1 [Example 387, Cyclobutylmethyl 4-{3-(cyanomethyl)-3-[4-(7H-pyrrolo[2,3-d]pyrimidin-4-yl)-1H-pyrazol-1-yl]azetidin-1-yl}piperidine-1-carboxylate] | – | 9.7 | –
9 | CCOC(=O)N1CCC(N2CC(CC#N)(n3cc(-c4ncnc5[nH]ccc45)cn3)C2)CC1 [Example 388, ethyl 4-{3-(cyanomethyl)-3-[4-(7H-pyrrolo[2,3-d]pyrimidin-4-yl)-1H-pyrazol-1-yl]azetidin-1-yl}piperidine-1-carboxylate] | – | 7.6 | –
10 | N#CCC1(n2cc(-c3ncnc4[nH]ccc34)cn2)CN(C2CCN(C(=O)OCc3ccccc3)CC2)C1 [Example 389, benzyl 4-{3-(cyanomethyl)-3-[4-(7H-pyrrolo[2,3-d]pyrimidin-4-yl)-1H-pyrazol-1-yl]azetidin-1-yl}piperidine-1-carboxylate] | – | 6.5 | –
11 | CC(C)COC(=O)N1CCC(N2CC(CC#N)(n3cc(-c4ncnc5[nH]ccc45)cn3)C2)CC1 [Example 390, isobutyl 4-{3-(cyanomethyl)-3-[4-(7H-pyrrolo[2,3-d]pyrimidin-4-yl)-1H-pyrazol-1-yl]azetidin-1-yl}piperidine-1-carboxylate] | – | 8.3 | –
12 | CC1(COC(=O)N2CCC(N3CC(CC#N)(n4cc(-c5ncnc6[nH]ccc56)cn4)C3)CC2)CC1 [Example 392, (1-methylcyclopropyl)methyl 4-{3-(cyanomethyl)-3-[4-(7H-pyrrolo[2,3-d]pyrimidin-4-yl)-1H-pyrazol-1-yl]azetidin-1-yl}piperidine-1-carboxylate] | – | 5.6 | –
13 | N#CCC1(n2cc(-c3ncnc4[nH]ccc34)cn2)CN(C2CCN(C(=O)OCc3ccc(F)cc3F)CC2)C1 [Example 393, 2,4-difluorobenzyl 4-{3-(cyanomethyl)-3-[4-(7H-pyrrolo[2,3-d]pyrimidin-4-yl)-1H-pyrazol-1-yl]azetidin-1-yl}piperidine-1-carboxylate] | – | 7.1 | –
